These results are taken from patent US4535081A, “Antiallergic and antiulcer 1-oxo-1H-thiazolo[3,2-a]pyrimidine-2-carboxamides and intermediates therefor” (Pfizer Inc., priority 1983, dated 1985).

Like-named read-outs stand apart in the source and are kept apart here.

Assay [1] has as its system IgG (hyperimmune antiserum) PCA reaction. Description: Oral activity in PCA test, IgG. The settings on record: Rattus norvegicus. It is filed as in vivo. As to the method:
(§1) The antiallergy property of the compounds of this invention is evaluated by the passive cutaneous anaphylaxis (PCA) test (Ovary, J. Immun., 81, 355, 1958). In the PCA test, normal animals are injected intradermally (i.d.) with antibodies contained in serum obtained from actively sensitized animals. The animals are then challenged intravenously with antigen mixed with a dye such as Evans' Blue. The increased capillary permeability caused by the antigen-antibody reaction causes the dye to leak from the site of the antibody injection. The test animals are then asphyxiated and the intensity of the reaction determined by measuring the diameter and intensity of the blue coloration on the inner surface of the animals' skin.
(§2) The ability of agents to interfere with PCA reactions is measured in male Charles River Wistar rats, 170-210 g. Reaginic antiserum, rich in IgE antibodies, is prepared according to Petillo et al., Int. Arch. Allergy, 44, 309 (1973). Hyperimmune antiserum rich in IgG antibodies to hen egg albumin is prepared according to Orange et al., J. Exptl. Med., 127, 767 (1968). Forty-eight hours prior to antigen challenge, the reaginic antiserum is injected intradermally (i.d.) into the shaved skin of a normal rat's back; 5 hours before challenge the hyperimmune antisera is similarly injected. At a third site 60 mcg. histamine dihydrochloride and 0.5 mcg. serotonin creatinine sulfate are injected i.d. just prior to antigen challenge as a check for antihistaminic, antiserotonin and unspecific types of blockage; the compounds of the instant invention or saline are then administered i.v. and immediately followed by the challenge of 5 mg. egg albumen and 2.5 mg. Evans' Blue dye in saline. In the case of oral administration Evans' Blue dye and egg albumin are given 5 minutes after administration of the drug. Thirty minutes later the animals are asphyxiated using chloroform and the skin of the back removed and reversed for observation. A score is assigned each injection site equal to the product of the diameter of the site in mm. and a grade of 0.1, 0.5, 1, 2, 3 or 4 proportional to intensity of dye coloration. The scores for a given injection site are summed for each group of five animals and compared to the saline treated controls. The difference is expressed as percent blockage due to the compound employed.
Compounds representative of those of the present invention are tested for antiallergy activity by the above-described procedure and the resulting activities are reported as the degree (%) of protection.

The subject of assay [2] is IgE (reaginic antiserum) PCA reaction. Description: Oral activity in PCA test, IgE. The settings on record: Rattus norvegicus, IgE, oral. In kind it is in vivo, rat. Here is the method:
as §1
The PCA test is a measure of the anti-allergic (especially anti-asthmatic) activity of a compound. Compounds which inhibit a positive PCA test induced by the rat immunochemical counterpart of human immunoglobulin E (IgE), or reagin, are considered to have anti-allergic activity (C. Mota, Ann. N.Y. Acad. Sci., 103, 264 1963). (Reagin is primarily immunoglobulin E [IgE] and is the principal immunoglobulin responsible for allergic asthma, anaphylaxis, hay fever, food sensitivities and certain manifestations of drug sensitivities, although recent evidence ascribes to the IgG class of antibodies a significant role in the mediation of allergic diseases). Such compounds when administered to a sensitized subject, human or animal, prior to the time when the subject comes into contact with antigens or substances to which it is allergic, will prevent the allergic reaction which would otherwise occur. They, therefore, provide a method for the prophylactic treatment of allergy or anaphylactic reactions of a reagin mediated nature.
To put it another way, such compounds block the release of mediators resulting from the antigen-antibody (allergic) reaction as illustrated in the PCA test using rat homocytotropic antibody--a known correlate of human reaginic antibody. Inhibition of reaginic antigen-antibody reactions in rats, the test animal of the PCA test, is regarded as representative of inhibition of human reaginic antigen-antibody reactions which occur during allergic episodes.
as §2, with “employed. […]” for “employed.”

Setting [3] is: Table II acids, read-out: Oral Activity (% of Protection) of Acids in the PCA Test, IgG.
Where [4] appears, read: Table II acids, read-out: Oral Activity (% of Protection) of Acids in the PCA Test, IgE.
The mark [5] stands for this setting: Table I amides, read-out: Oral Activity (% of Protection) in the PCA Test, IgG.
Setting [6] is: Table I amides, read-out: Oral Activity (% of Protection) in the PCA Test, IgE.

Take `CC(C)(C)c1csc2ncc(C(=O)O)c(=O)n12` [Formula II: R1=H, R2=C(CH3)3, 1-Oxo-1H-7-(2-methyl-2-propyl)thiazolo[3,2-a]pyrimidine-2-carboxylic Acid]: the inhibition in vivo at 30 mg/kg came to 6% in assay [1] (setting [3]) and 10% in assay [2] (setting [4]).

`CCc1c(C)sc2ncc(C(=O)O)c(=O)n12` [Formula II: R1=CH3, R2=C2H5, 1-Oxo-1H-6-methyl-7-ethylthiazolo[3,2-a]pyrimidine-2-carboxylic Acid]: the inhibition in vivo at 30 mg/kg in assay [1] (setting [3]) and in assay [2] (setting [4]) was 0% each time.

In the case of `CCc1sc2ncc(C(=O)Nc3nnn[nH]3)c(=O)n2c1C` [Formula I: R1=C2H5, R2=CH3, N-(5-Tetrazolyl)-1-oxo-1H-6-ethyl-7-methylthiazolo[3,2-a]pyrimidine-2-carboxamide], the inhibition in vivo at 30 mg/kg in assay [1] (setting [5]) is 28%; in assay [2] (setting [6]), 29%.

`O=C(Nc1nnn[nH]1)c1cnc2sc3c(n2c1=O)CCC3` [Formula I: (CH2)3, N-(5-Tetrazolyl)-1-oxo-1H-cyclopentenothiazolo[3,2-a]pyrimidine-2-carboxamide]: the inhibition in vivo at 1 mg/kg turned out to be 43% in assay [1] (1 mg./kg., read-out: Oral Activity (% of Protection) in the PCA Test, IgG) and 46% in assay [2] (1 mg./kg., read-out: Oral Activity (% of Protection) in the PCA Test, IgE).

Regarding `O=C(O)c1cnc2sc3c(n2c1=O)CCCCCC3` [Formula II: (CH2)6, 1-Oxo-1H-cyclooctenothiazolo[3,2-a]pyrimidine-2-carboxylic Acid], the inhibition in vivo at 10 mg/kg worked out at 15% in assay [1] (10 mg./kg., Table II acids, read-out: Oral Activity (% of Protection) of Acids in the PCA Test, IgG) and 36% in assay [2] (10 mg./kg., Table II acids, read-out: Oral Activity (% of Protection) of Acids in the PCA Test, IgE). Also, the inhibition in vivo at 30 mg/kg worked out at 45% in assay [1] (setting [3]) and 68% in assay [2] (setting [4]).

For the compound `O=C(Nc1nnn[nH]1)c1cnc2sc3c(n2c1=O)CCCCC3` [Formula I: (CH2)5, N-(5-Tetrazolyl)-1-oxo-1H cycloheptenothiazolo[3,2-a]pyrimidine-2-carboxamide], the figures for the inhibition in vivo at 30 mg/kg in assay [1] (setting [5]) and in assay [2] (setting [6]) were 38% and 25%, respectively.

For the compound `O=C(Nc1nnn[nH]1)c1cnc2sccn2c1=O` [Formula I: R1=H, R2=H], the inhibition in vivo at 30 mg/kg in assay [1] (setting [5]) amounted to 46%; in assay [2] (setting [6]), 50%.

Regarding `O=C(O)c1cnc2sccn2c1=O` [Formula II: R1=H, R2=H], the inhibition in vivo at 30 mg/kg in assay [1] (setting [3]) amounted to 7%; in assay [2] (setting [4]), 18%.

Turning to `O=C(O)c1cnc2sc3c(n2c1=O)CCCCC3` [Formula II: (CH2)5, 1-Oxo-1H-cycloheptenothiazolo[3,2-a]pyrimidine-2-carboxylic Acid], the inhibition in vivo at 30 mg/kg is 44% in assay [1] (setting [3]) and 37% in assay [2] (setting [4]).

Take `O=C(O)c1cnc2sc3c(n2c1=O)CCC(c1ccccc1)C3` (centres unmarked) [Formula II: CH2CH(C5H6)CH2CH2, 1-oxo-1H-7-phenylcyclohexenothiazolo[3,2-a]pyrimidine-2-carboxylic Acid]: the results for the inhibition in vivo at 30 mg/kg in assay [1] (setting [3]) and in assay [2] (setting [4]) were 5% and 15%, respectively.

For `O=C(O)c1cnc2sc3c(n2c1=O)CCC3` [Formula II: (CH2)3, 1-Oxo-1H-cyclopentenothiazolo[3,2-a]pyrimidine-2-carboxylic Acid], the inhibition in vivo at 30 mg/kg in assay [1] (setting [3]) and in assay [2] (setting [4]) was 0% in each case.

As for `CC(C)c1csc2ncc(C(=O)O)c(=O)n12` [Formula II: R1=H, R2=CH(CH3)2, 1-Oxo-1H-7-isopropylthiazolo[3,2-a]pyrimidine-2-carboxylic Acid], the inhibition in vivo at 30 mg/kg in assay [1] (setting [3]) and in assay [2] (setting [4]) was 0% in each case.

For `CCc1csc2ncc(C(=O)O)c(=O)n12` [Formula II: R1=H, R2=C2H5, 1-Oxo-1H-7-ethylthiazolo[3,2-a]pyrimidine-2-carboxylic Acid], the inhibition in vivo at 30 mg/kg in assay [1] (setting [3]) is 21%; in assay [2] (setting [4]), 13%.

For `CCc1c(C)sc2ncc(C(=O)Nc3nnn[nH]3)c(=O)n12` [Formula I: R1=CH3, R2=C2H5, N-(5-Tetrazolyl)-1-oxo-1H-6-methyl-7-ethylthiazolo[3,2-a]pyrimidine-2-carboxamide], the figures for the inhibition in vivo at 30 mg/kg in assay [1] (setting [5]) and in assay [2] (setting [6]) were 57% and 75%, respectively.

For `CC(C)c1csc2ncc(C(=O)Nc3nnn[nH]3)c(=O)n12` [Formula I: R1=H, R2=CH(CH3)2, N-(5-Tetrazolyl)-1-oxo-1H-7-isopropylthiazolo[3,2-a]pyrimidine-2-carboxamide], the inhibition in vivo at 30 mg/kg is 53% in assay [1] (setting [5]) and 72% in assay [2] (setting [6]).

In the case of `CCC(C)c1csc2ncc(C(=O)O)c(=O)n12` (centres unmarked) [1-Oxo-1H-7-(2-butyl)thiazolo[3,2-a]pyrimidine-2-carboxylic Acid], the inhibition in vivo at 30 mg/kg in assay [1] (setting [3]) amounted to 8%; in assay [2] (setting [4]), 1%.

For `CC1(C)CCc2c(sc3ncc(C(=O)O)c(=O)n23)C1` [Formula II: CH2C(CH3)2CH2CH2, 1-Oxo-1H-7,7-dimethylcyclohexenothiazolo[3,2-a]pyrimidine-2-carboxylic Acid], the values for the inhibition in vivo at 30 mg/kg in assay [1] (setting [3]) and in assay [2] (setting [4]) were 6% and 13%, respectively.

Turning to `CC1CCc2c(sc3ncc(C(=O)O)c(=O)n23)C1` (centres unmarked) [Formula II: CH2CH(CH3)CH2CH2, 1-Oxo-1H-7-methylcyclohexenothiazolo[3,2-a]pyrimidine-2-carboxylic Acid], the inhibition in vivo at 30 mg/kg in assay [1] (setting [3]) amounted to 21%; in assay [2] (setting [4]) it was 31%.

Consider `CCc1csc2ncc(C(=O)Nc3nnn[nH]3)c(=O)n12` [Formula I: R1=H, R2=C2H5, N-(5-Tetrazolyl)-1-oxo-1H-7-ethylthiazolo[3,2-a]pyrimidine-2-carboxamide], for which the inhibition in vivo at 30 mg/kg in assay [1] (setting [5]) was found to be 44%; in assay [2] (setting [6]) it was 70%.

For `CCc1sc2ncc(C(=O)O)c(=O)n2c1C` [Formula II: R1=C2H5, R2=CH3, 1-Oxo-1H-6-ethyl-7-methylthiazolo[3,2-a]pyrimidine-2-carboxylic Acid], the results for the inhibition in vivo at 30 mg/kg in assay [1] (setting [3]) and in assay [2] (setting [4]) were 24% and 42%, respectively.

Regarding `CC(C)(C)c1csc2ncc(C(=O)Nc3nnn[nH]3)c(=O)n12` [Formula I: R1=H, R2=C(CH3)3, N-(5-Tetrazolyl)-1-oxo-1H-7-(2-methyl-2-propyl)thiazolo[3,2-a]pyrimidine-2-carboxamide], the inhibition in vivo at 30 mg/kg in assay [1] (setting [5]) came to 20%; in assay [2] (setting [6]) it was 37%.
